Results: patent US20080021217A1, “HETEROCYCLIC INHIBITORS OF RHO KINASE” (priority 2006, published 2008)

Tests used:
[1] = biological target: T1, recombinant N-terminal GST-tagged human Rho kinase 2 (ROCK2, amino acids 1-552) (Homo sapiens, UniProt O75116); assay: In vitro Rho kinase assay (luciferase-based ATP consumption), ROCK2; type: biochemical
T1 construct: ROCK2, amino acids 1-552, Invitrogen Inc., cat #PV3759; GST (N); purchased Invitrogen Inc. PV3759
Method: (§1) Rho kinase biochemical assays described below depend on firefly luciferase-based, indirect measurement of total ATP consumption by the kinase following incubation with substrate and ATP. 25 μl of Rho kinase assay buffer (20 mM Tris-HCL [pH 7.5], 1 mM MgCl2, 0.4 mM CaCl2, 0.15 mM EGTA, 0.1 mg/ml bovine serum albumin) containing 0.82 μg/ml of recombinant N-terminal GST-tagged human Rho kinase 1 (ROCK1, amino acids 1-535, Invitrogen Inc., cat. #PV-3691) or recombinant N-terminal GST-tagged human Rho kinase 2 (ROCK2, amino acids 1-552, Invitrogen Inc., cat #PV3759), 100 μg/ml S6 peptide substrate (related to amino acids 218-249 of the human 40S ribosomal protein S6, and suitable for ROCK1 or ROCK2, e.g. Upstate/Millipore Inc., cat #12-420), and 3 µM ATP are dispensed to wells of a 384 multi-well opaque plate. The plate is centrifuged for 30 seconds at approximately 200×g. 240 nl of test compound in DMSO is dispensed to each well by passive pin transfer. The lag phase of this in vitro kinase reaction permits addition of compounds soon after the reaction initiates. The reaction is allowed to incubate at 30° C. for 2 hours. The assay plates are sealed and maintained in a humidified environment. After 2 hours, 25 μl of easyLite protein kinase assay reagent (Perkin-Elmer, Inc.) is dispensed. After an additional 10 minute incubation at room temperature (about 22° C.), luminescence activity is measured on a Molecular Devices Analyst multi-mode plate reader or other suitable plate reader. Kinase inhibition results in less ATP consumption, and therefore increased luminescence signal. Negative control activity is measured with DMSO lacking any test compound. The positive control is 2-methyl-1-(4-methylisoquinolin-5-ylsulfonyl)perhydro-1,4-diazepine hydrochloride (aka H-1152P, HCl salt). Efficacy is measured as a percentage of positive control activity. […] In some cases, kinase reactions and compound testing are performed in 1536 multi-well plates under similar conditions, with assay volumes appropriately scaled. The designated NT means the cited example was not tested.

[2] = biological target: T2, recombinant N-terminal GST-tagged human Rho kinase 1 (ROCK1, amino acids 1-535) (Homo sapiens, UniProt Q13464); assay: In vitro Rho kinase assay (luciferase-based ATP consumption), ROCK1; type: biochemical
T2 construct: ROCK1, amino acids 1-535, Invitrogen Inc., cat. #PV-3691; GST (N); purchased Invitrogen Inc. PV-3691
Method: as §1

T1 sequence (O75116 1-552): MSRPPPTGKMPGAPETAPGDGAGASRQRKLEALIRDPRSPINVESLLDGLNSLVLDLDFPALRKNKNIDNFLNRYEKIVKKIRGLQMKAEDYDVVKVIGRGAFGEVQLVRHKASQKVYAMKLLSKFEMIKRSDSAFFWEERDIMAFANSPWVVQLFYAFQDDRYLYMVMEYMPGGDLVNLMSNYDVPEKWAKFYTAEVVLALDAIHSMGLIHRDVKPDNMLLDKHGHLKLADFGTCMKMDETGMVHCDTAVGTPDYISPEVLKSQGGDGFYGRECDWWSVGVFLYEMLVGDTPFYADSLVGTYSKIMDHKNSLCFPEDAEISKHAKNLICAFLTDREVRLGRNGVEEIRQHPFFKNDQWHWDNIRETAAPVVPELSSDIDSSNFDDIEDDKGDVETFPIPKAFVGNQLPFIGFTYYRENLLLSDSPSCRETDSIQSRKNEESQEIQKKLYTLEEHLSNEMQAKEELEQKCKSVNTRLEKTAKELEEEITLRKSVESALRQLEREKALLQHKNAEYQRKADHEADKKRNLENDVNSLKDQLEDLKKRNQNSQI
T2 sequence (Q13464 1-535): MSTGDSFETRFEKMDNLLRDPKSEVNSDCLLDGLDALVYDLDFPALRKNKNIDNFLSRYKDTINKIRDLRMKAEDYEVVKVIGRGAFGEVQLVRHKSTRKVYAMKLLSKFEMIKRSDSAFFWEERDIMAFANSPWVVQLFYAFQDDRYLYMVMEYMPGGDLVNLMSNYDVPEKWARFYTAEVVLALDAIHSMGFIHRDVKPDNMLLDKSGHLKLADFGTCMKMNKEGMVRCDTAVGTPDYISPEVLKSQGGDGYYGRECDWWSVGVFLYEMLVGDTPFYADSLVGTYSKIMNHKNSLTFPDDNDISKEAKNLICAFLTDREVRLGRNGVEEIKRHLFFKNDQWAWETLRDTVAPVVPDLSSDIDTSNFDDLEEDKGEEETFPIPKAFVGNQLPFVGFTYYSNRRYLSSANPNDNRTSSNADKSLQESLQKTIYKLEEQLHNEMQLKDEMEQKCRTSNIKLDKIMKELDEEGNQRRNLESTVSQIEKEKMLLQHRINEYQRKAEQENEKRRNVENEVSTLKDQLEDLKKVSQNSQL

Compound | IC50 [1] [µM] | IC50 [2] [µM]
O=C(NCc1nc(-c2ccncc2)n[nH]1)c1ccsc1 [Example 17, N-((3-(pyridin-4-yl)-1H-1,2,4-triazol-5-yl)methyl)thiophene-3-carboxamide] | < 5 | < 5
c1ccc2c(NCc3nc(-c4ccncc4)n[nH]3)n[nH]c2c1 [Example 59, N-((3-(Pyridin-4-yl)-1H-1,2,4-triazol-5-yl)methyl)-1H-indazol-3-amine] | > 5 | > 5
O=C(NCc1nc(-c2ccncc2)n[nH]1)c1ccc(CO)cc1 [Example 51, 4-(Hydroxymethyl)-N-((3-(pyridin-4-yl)-1H-1,2,4-triazol-5-yl)methyl)benzamide] | < 5 | < 5
COC(=O)c1ccc(C(=O)NCc2nc(-c3ccncc3)n[nH]2)cc1 [Example 30, Methyl 4-((3-(pyridin-4-yl)-1H-1,2,4-triazol-5-yl)methylcarbamoyl)benzoate] | < 5 | < 5
Oc1ccc(C(O)CCc2nc(-c3ccncc3)n[nH]2)cc1 (centres unmarked) [Example 64, 4-(1-hydroxy-3-(3-(pyridin-4-yl)-1H-1,2,4-triazol-5-yl)propyl)phenol] | > 5 | > 5
CC(C)(C)C(=O)Oc1ccc(C(=O)NCc2nc(-c3ccncc3)n[nH]2)c(O)c1 [Example 39, 3-Hydroxy-4-((3-(pyridin-4-yl)-1H-1,2,4-triazol-5-yl)methylcarbamoyl)phenyl pivalate] | > 5 | < 5
CN(Cc1nc(-c2ccncc2)n[nH]1)C(=O)c1cccs1 [Example 57, N-Methyl-N-((3-(pyridin-4-yl)-1H-1,2,4-triazol-5-yl)methyl)thiophene-2-carboxamide] | > 5 | > 5
O=C(NCc1ncc(-c2ccncc2)s1)c1cccs1 [Example 1, N-((5-(pyridin-4-yl)thiazol-2-yl)methyl)thiophene-2-carboxamide] | > 5 | > 5
CC(NC(=O)c1ccc(O)cc1O)c1nc(-c2ccncc2)n[nH]1 (centres unmarked) [Example 66, 2,4-Dihydroxy-N-(1-(3-(pyridin-4-yl)-1H-1,2,4-triazol-5-yl)ethyl)benzamide] | < 5 | < 5
O=C(NCc1nc(-c2c[nH]c3ncccc23)cs1)c1cccs1 [Example 75, N-((4-(1H-pyrrolo [2,3-b]pyridin-3-yl)thiazol-2-yl)methyl)thiophene-2-carboxamide] | < 5 | < 5
O=C(O)c1ccc(C(=O)NCc2nc(-c3ccncc3)n[nH]2)cc1 [Example 31, 4-((3-(Pyridin-4-yl)-1H-1,2,4-triazol-5-yl)methylcarbamoyl)benzoic acid] | < 5 | > 5
Cc1cccc(C(=O)NCc2cc(-c3ccncc3)n[nH]2)c1O [Example 10, 2-hydroxy-3-methyl-N-((3-(pyridin-4-yl)-1H-pyrazol-5-yl)methyl)benzamide] | < 5 | < 5
CS(=O)(=O)Nc1cccc(C(=O)NCc2nc(-c3c[nH]c4ncccc34)cs2)c1 [Example 73, N-((4-(1H-pyrrolo[2,3-b]pyridin-3-yl)thiazol-2-yl)methyl)-3-(methylsulfonamido)benzamide] | < 5 | < 5
O=S(=O)(NCc1nc(-c2ccncc2)n[nH]1)c1ccc(O)cc1 [Example 55, 4-Hydroxy-N-((3-(pyridin-4-yl)-1H-1,2,4-triazol-5-yl)methyl)benzenesulfonamide] | > 5 | > 5
CN(Cc1nc(-c2ccncc2)n[nH]1)C(=O)c1ccc(O)cc1O [Example 58, 2,4-Dihydroxy-N-methyl-N-((3-(pyridin-4-yl)-1H-1,2,4-triazol-5-yl)methyl)benzamide] | > 5 | > 5
O=C(NCc1nc(-c2ccncc2)n[nH]1)c1n[nH]c2ccccc12 [Example 33, N-((3-(Pyridin-4-yl)-1H-1,2,4-triazol-5-yl)methyl)-1H-indazole-3-carboxamide] | < 5 | > 5
CC(C)(C)OC(=O)NC[C@H](NC(=O)c1ccc(O)cc1O)c1nc(-c2ccncc2)n[nH]1 [Example 79, (S)-tert-Butyl 2-(2,4-dihydroxybenzamido)-2-(3-(pyridin-4-yl)-1H-1,2,4-triazol-5-yl)ethylcarbamate] | < 5 | < 5
CS(=O)(=O)Nc1cccc(C(=O)NCc2nc(-c3c[nH]c4ncccc34)n[nH]2)c1 [Example 72, N-((3-(1H-pyrrolo[2,3-b]pyridin-3-yl)-1H-1,2,4-triazol-5-yl)methyl)-3-(methylsulfonamido)benzamide] | < 5 | < 5
O=C(NCc1nc(-c2ccncc2)n[nH]1)c1cccc2c1OCC2 [Example 43, N-((3-(pyridin-4-yl)-1H-1,2,4-triazol-5-yl)methyl)-2,3-dihydrobenzofuran-7-carboxamide] | > 5 | < 5
NC(=O)c1cc(-c2ccncc2)n[nH]1 [Example 11, 3-(pyridin-4-yl)-1H-pyrazole-5-carboxamide] | > 5 | > 5
Cc1csc(C(=O)NCc2nc(-c3ccncc3)n[nH]2)c1 [Example 48, 4-Methyl-N-((3-(pyridin-4-yl)-1H-1,2,4-triazol-5-yl)methyl)thiophene-2-carboxamide] | < 5 | < 5
c1ccc2c(NCc3nc(-c4ccncc4)n[nH]3)ncnc2c1 [Example 53, N-((3-(Pyridin-4-yl)-1H-1,2,4-triazol-5-yl)methyl)quinazolin-4-amine] | > 5 | > 5
Cn1nc(-c2ccncc2)nc1CNC(=O)c1cccs1 [Example 50, N-((1-Methyl-3-(pyridin-4-yl)-1H-1,2,4-triazol-5-yl)methyl)thiophene-2-carboxamide] | > 5 | > 5
Clc1ccc(SCc2nc(-c3ccncc3)n[nH]2)cc1 [Example 80] | < 5 | < 5
O=C(NCc1nc(-c2ccncc2)co1)c1ccc(O)cc1O [Example 8, 2,4-dihydroxy-N-((4-(pyridin-4-yl)oxazol-2-yl)methyl)benzamide] | < 5 | < 5
CC(C)(C)C(=O)Oc1ccc(C(=O)NCc2nc(-c3ccncc3)n[nH]2)cc1 [Example 38, 4-((3-(Pyridin-4-yl)-1H-1,2,4-triazol-5-yl)methylcarbamoyl)phenyl pivalate] | > 5 | > 5
CC(C)(C)OC(=O)NC1CCN(C(=O)Cc2nc(-c3ccncc3)n[nH]2)C1 (centres unmarked) [Example 60, tert-Butyl 1-(2-(3-(pyridin-4-yl)-1H-1,2,4-triazol-5-yl)acetyl)pyrrolidin-3-ylcarbamate] | > 5 | –
O=C(Nc1cccc2c(-c3ccncc3)n[nH]c12)c1cccs1 [Example 68, N-(3-(Pyridin-4-yl)-1H-indazol-7-yl)thiophene-2-carboxamide] | > 5 | –
COc1ccc(NC(=O)NCc2nc(-c3ccncc3)n[nH]2)c(OC)c1 [Example 34, 1-(2,4-Dimethoxyphenyl)-3-((3-(pyridin-4-yl)-1H-1,2,4-triazol-5-yl)methyl)urea] | > 5 | –
NC1CCN(C(=O)Cc2nc(-c3ccncc3)n[nH]2)C1 (centres unmarked) [Example 61, 1-(3-Aminopyrrolidin-1-yl)-2-(3-(pyridin-4-yl)-1H-1,2,4-triazol-5-yl)ethanone] | > 5 | –
